Results taken from PMC10253456, “Investigating the Contribution of Major Drug-Metabolising Enzymes to Possum-Specific Fertility Control” (International Journal of Molecular Sciences, 2023).
Where two headings read alike, the source gives them in different places.

Columns and labels:
CYP3A [1] = assay: CYP3A catalytic activity (erythromycin N-demethylation) in mouse liver microsomes; conditions: for Percent control catalytic activity at estimated IC50 / Percent control catalytic activity at estimated 2-fold IC50: mouse liver microsomes, initial screen n=1; for Percent control catalytic activity at estimated IC50: compounds without reported IC50 at 1 µM; for Percent control catalytic activity at estimated 2-fold IC50: compounds without reported IC50 at 5 µM; for % of control (catalytic activity at 2-fold IC50) / Catalytic activity at 2-fold IC50 / % of control (catalytic activity at IC50) / inhibition of CYP3A catalytic activities at higher concentration: mouse; for % of control (catalytic activity at 2-fold IC50) / Catalytic activity at 2-fold IC50: compound at estimated 2-fold IC50 (5 µM where none reported); for % of control (catalytic activity at IC50): compound at estimated IC50 (1 µM where none reported); for inhibition of CYP3A catalytic activities at higher concentration: 10 µM
Experimental: (§1) Possums were collected from the Otago Peninsula (Dunedin) and the Okuti Valley, Banks Peninsula (Christchurch) in New Zealand in collaboration with the Otago Peninsula Biodiversity Group and Manaaki Whenua-Landcare Research, respectively. […] Possums were caged and humanely killed by a blow to the head, and the livers were harvested, snap-frozen in liquid nitrogen, and stored in a freezer at −80 °C until the preparation of microsomal fractions. […] Mice were euthanised by carbon dioxide inhalation and the livers were removed and microsomes prepared. […] The livers from avian species (mallards and a swan) were kindly donated by a local bird hunting group based in Dunedin, New Zealand. The livers from avian species were treated similarly to those mentioned above for the possum samples.
(§2) Microsomal preparation was carried out as previously described [76]. […] All procedures were performed at 0–4 °C. The liver samples were minced and homogenised in Buffer A (0.1 M Tris, 0.1 M potassium chloride, 1 mM EDTA, and 20 μM butylated hydroxytoluene, at pH = 7.4) using the Teflon-glass homogeniser (5–6 vertical passes). The samples were centrifuged at 10,000× g for 20 min. The supernatant was then transferred into another set of centrifuge tubes and spun at 100,000× g for 60 min. The pellet was resuspended in Buffer B (0.1 M potassium pyrophosphate, 1 mM EDTA, and 20 μM butylated hydroxytoluene, at pH = 7.4), homogenised, and recentrifuged at 100,000× g for 60 min. Finally, the pellet was homogenised in 1–2 mL of Buffer C (10 mM Tris-HCl, 1 mM EDTA, and 4% glycerol (v/v)), and stored at −80 °C until use. The protein concentration of the microsomes was determined using the bicinchoninic acid (BCA) method [77].
(§3) CYP3A catalytic activity was determined using the erythromycin N-demethylation activity assay, as described [78]. The reaction mixture (final volume of 1 mL and final protein concentration of 1 mg) contained 500 µL of microsomes in 0.1 M phosphate buffer (pH 7.4) and 400 µL of erythromycin buffer (0.45 mM), and 50 µL of the test compound was pre-warmed at 37 °C for 2 min. The reaction was initiated with 50 µL of 2.5 mM nicotinamide adenine dinucleotide phosphate (NADP^+) and incubated for 30 min at 37 °C. […] The tubes were vortexed and left for 5 min (at room temperature), and then 330 µL of saturated barium hydroxide was added. The tubes were further vortexed and left for 5 min (at room temperature). The tubes were then centrifuged at 1800× g for 10 min. To 830 µL of the supernatant, 330 µL of Nash reagent (30% (w/v) ammonium acetate, 0.4% (v/v) acetylacetone) was added and further incubated for 30 min at 60 °C. The blank tube contained 330 µL of Nash reagent and 830 µL of Milli-Q water. […] The CYP3A activities were determined in nmol/mg/min using standard curve data. Results presented are the mean ± SEM of 3 independent experiments performed in duplicate unless otherwise stated.

CYP3A [2] = conditions: avian; for % of control (catalytic activity at 2-fold IC50) / Catalytic activity at 2-fold IC50: compound at estimated 2-fold IC50 (5 µM where none reported); for % of control (catalytic activity at IC50): compound at estimated IC50 (1 µM where none reported)
Experimental: as §1, §2, §3

CYP3A [3] = assay: CYP3A catalytic activity (erythromycin N-demethylation) in possum liver microsomes; conditions: for Percent control catalytic activity at estimated IC50 / Percent control catalytic activity at estimated 2-fold IC50: possum liver microsomes, initial screen n=1; for Percent control catalytic activity at estimated IC50: compounds without reported IC50 at 1 µM; for Percent control catalytic activity at estimated 2-fold IC50: compounds without reported IC50 at 5 µM; for % of control (catalytic activity at 2-fold IC50) / Catalytic activity at 2-fold IC50 / % of control (catalytic activity at IC50) / inhibition of CYP3A catalytic activities at higher concentration / reduced catalytic activity of possum CYP3A, % of the control: possum; for % of control (catalytic activity at 2-fold IC50) / Catalytic activity at 2-fold IC50: compound at estimated 2-fold IC50 (5 µM where none reported); for % of control (catalytic activity at IC50): compound at estimated IC50 (1 µM where none reported); for inhibition of CYP3A catalytic activities at higher concentration: 10 µM; for reduced catalytic activity of possum CYP3A, % of the control: mainly at 5 µM or an estimated 2-fold IC50, not significantly different
Experimental: as §1, §2, §3

CYP3A [4] = assay: CYP3A catalytic activity (erythromycin N-demethylation) in pooled human liver microsomes; conditions: for % of control (catalytic activity at 2-fold IC50) / Catalytic activity at 2-fold IC50: compound at estimated 2-fold IC50 (5 µM where none reported)
Experimental: as §3

Row | SMILES | Percent control catalytic activity at estimated IC50 (CYP3A [1]) [percent control] | Percent control catalytic activity at estimated 2-fold IC50 (CYP3A [1]) [percent control] | % of control (catalytic activity at 2-fold IC50) (CYP3A [1]) | Catalytic activity at 2-fold IC50 (CYP3A [1]) [nmol/mg/min] | % of control (catalytic activity at IC50) (CYP3A [1]) | % of control (catalytic activity at 2-fold IC50) (CYP3A [2]) | Catalytic activity at 2-fold IC50 (CYP3A [2]) [nmol/mg/min] | % of control (catalytic activity at IC50) (CYP3A [2]) | Percent control catalytic activity at estimated IC50 (CYP3A [3]) [percent control] | Percent control catalytic activity at estimated 2-fold IC50 (CYP3A [3]) [percent control] | % of control (catalytic activity at 2-fold IC50) (CYP3A [3]) | Catalytic activity at 2-fold IC50 (CYP3A [3]) [nmol/mg/min] | % of control (catalytic activity at IC50) (CYP3A [3]) | % of control (catalytic activity at 2-fold IC50) (CYP3A [4]) | Catalytic activity at 2-fold IC50 (CYP3A [4]) [nmol/mg/min] | inhibition of CYP3A catalytic activities at higher concentration (CYP3A [1]) | inhibition of CYP3A catalytic activities at higher concentration (CYP3A [3]) | reduced catalytic activity of possum CYP3A, % of the control (CYP3A [3]) | activity at 30 min (CYP3A [4]; human, pH 7.4, probe erythromycin, % of control (catalytic activity at IC50), compound at estimated IC50 (1 µM where none reported)) [%]
1 | CC(=O)c1ccccc1O [2'-Hydroxyacetophenone] | 112 | 80 | 75 % of control | 0.35 ± 0.05 | 129 % of control | 102 % of control | 0.36 ± 0.05 | 101 % of control | 108 | 105 | 102 % of control | 0.29 ± 0.05 | 120 % of control |  |  |  |  |  | 
2 | O=C1c2ccccc2C(=O)c2c1ccc(O)c2O [Alizarin] | 91 | 89 | 96 % of control | 0.57 ± 0.06 |  | 94 % of control | 0.30 ± 0.04 |  | 70 | 77 | 84 % of control | 0.27 ± 0.01 |  | 98 % of control | 0.57 | did not show any significant inhibition | did not show any significant inhibition | ~ 35 % of the control | 
3 | CCc1oc2ccccc2c1C(=O)c1cc(Br)c(O)c(Br)c1 [Benzbromarone] | 97 | 96 | 97 % of control | 0.57 ± 0.08 |  | 104 % of control | 0.34 ± 0.01 |  | 83 | 78 | 80 % of control | 0.26 ± 0.02 |  | 113 % of control | 0.37 | did not show any significant inhibition | did not show any significant inhibition | ~ 35 % of the control | 
4 | C/C1=C/CC[C@H](C)C(=O)C[C@@H](C(C)C)C(=O)C1 [Curdione] | 143 | 134 | 94 % of control | 0.38 ± 0.05 | 114 % of control | 99 % of control | 0.41 ± 0.04 | 97 % of control | 92 | 103 | 99 % of control | 0.37 ± 0.03 | 91 % of control |  |  |  |  |  | 
5 | C[C@]12CC[C@H](O)CC1=CC[C@@H]1[C@@H]2CC[C@]2(C)C(n3cnc4ccccc43)=CC[C@@H]12 [Galeterone] | 88 | 86 | 105 % of control | 0.63 ± 0.10 |  |  | 0.36 ± 0.04 |  | 76 | 80 | 83 % of control | 0.32 ± 0.02 |  | 114 % of control | 0.61 | did not show any significant inhibition | did not show any significant inhibition | ~ 35 % of the control | 99
6 | C=C[C@@H]1C2=CCOC(=O)C2=CO[C@H]1O[C@@H]1O[C@H](CO)[C@@H](O)[C@H](O)[C@H]1O [Gentiopicroside] | 92 | 85 | 97 % of control | 0.56 ± 0.12 |  | 114 % of control | 0.32 ± 0.03 |  | 98 | 83 | 82 % of control | 0.29 ± 0.02 |  | 122 % of control | 0.54 | did not show any significant inhibition | did not show any significant inhibition | ~ 35 % of the control | 
7 | COc1cc2c(=O)c3c(O)c([C@@H]4O[C@H](CO[C@@H]5OC[C@](O)(CO)[C@H]5O)[C@@H](O)[C@H](O)[C@H]4O)c(O)cc3oc2cc1O [Polygalaxanthone III] | 92 | 94 |  |  |  |  |  |  | 102 | 108 |  |  |  |  |  |  |  |  | 
8 | CC[C@@H]([C@H](C)O)n1ncn(-c2ccc(N3CCN(c4ccc(OC[C@@H]5CO[C@@](Cn6cncn6)(c6ccc(F)cc6F)C5)cc4)CC3)cc2)c1=O [Posaconazole] | 101 | 74 |  |  |  |  |  |  | 93 | 92 |  |  |  |  |  |  |  |  | 
9 | O=C([O-])C(O)Cc1ccc(O)c(O)c1.[Na+] (centres unmarked) [Sodium Danshensu] | 98 | 107 |  |  |  |  |  |  | 116 | 118 |  |  |  |  |  |  |  |  | 
10 | CC(C)(C)C(O)/C=C/c1ccc2c(c1)OCO2 (centres unmarked) [Stiripentol] | 119 | 102 |  |  |  |  |  |  | 109 | 105 |  |  |  |  |  |  |  |  | 
11 | c1ccc2[nH]c(-c3cscn3)nc2c1 [Thiabendazole] | 85 | 95 |  |  |  |  |  |  | 94 | 92 |  |  |  |  |  |  |  |  | 
12 | CC(C)(C)C(O)/C(=C\c1ccc(Cl)cc1)n1cncn1 (centres unmarked) [Uniconazole] | 67 | 40 |  |  |  |  |  |  | 82 | 84 |  |  |  |  |  |  |  |  | 
